Literature values as cited in patent publication US6436889B1, “Detergent compositions” (Unilever Home & Personal Care USA division of Conopco, Inc., priority 1999, dated 2002).
Read-outs that look alike come from different tables or passages of the source.

[1] = at 20° C., other common materials

| Structure (SMILES) | Water Solubility [1] [g/100 g] | Water Solubility (grams of solid required to form a saturated solution in 100 grams of water at 20° C., highly water-soluble materials) [g/100 g] |
| --- | --- | --- |
| O=BO[O-].[Na+] [Sodium perborate anhydrous] | 3.7 |  |
| NC(N)=O [Urea] |  | >100 |
| O=P(O)(O)OP(=O)(O)OP(=O)(O)O [Sodium tripolyphosphate anhydrous] | 15 |  |
